Results taken from patent US20240307409A1, “ARGININE METHYLTRANSFERASE INHIBITOR AND USE THEREOF” (Cytosinlab Therapeutics Co., Ltd., priority 2021, published 2024).

What was measured:
Format in all cases: biochemical
PRMT1 = PRMT1 (Homo sapiens, UniProt Q99873); assay: PRMT1 enzyme activity test; conditions: 0.5 nM PRMT1, 3H-SAM, peptide
Procedure, shortened: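 Radiometric methylation assay: 0.5 nM PRMT1 preincubated 15 min at room temperature with compound (10-point 3-fold series, 1% DMSO) in pH 8.0 Tris buffer with Tween-20 and DTT. 0.25 uM ³H-SAM and 0.1 uM biotinylated peptide then reacted 120 min. Product captured on streptavidin FlashPlate and counted; IC50 from four-parameter fit of % inhibition.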

PRMT3 = PRMT3 (Homo sapiens, UniProt O60678); assay: PRMT panel selectivity test, PRMT3; conditions: AlphaLISA
Chain of PRMT3 (O60678 whole entry): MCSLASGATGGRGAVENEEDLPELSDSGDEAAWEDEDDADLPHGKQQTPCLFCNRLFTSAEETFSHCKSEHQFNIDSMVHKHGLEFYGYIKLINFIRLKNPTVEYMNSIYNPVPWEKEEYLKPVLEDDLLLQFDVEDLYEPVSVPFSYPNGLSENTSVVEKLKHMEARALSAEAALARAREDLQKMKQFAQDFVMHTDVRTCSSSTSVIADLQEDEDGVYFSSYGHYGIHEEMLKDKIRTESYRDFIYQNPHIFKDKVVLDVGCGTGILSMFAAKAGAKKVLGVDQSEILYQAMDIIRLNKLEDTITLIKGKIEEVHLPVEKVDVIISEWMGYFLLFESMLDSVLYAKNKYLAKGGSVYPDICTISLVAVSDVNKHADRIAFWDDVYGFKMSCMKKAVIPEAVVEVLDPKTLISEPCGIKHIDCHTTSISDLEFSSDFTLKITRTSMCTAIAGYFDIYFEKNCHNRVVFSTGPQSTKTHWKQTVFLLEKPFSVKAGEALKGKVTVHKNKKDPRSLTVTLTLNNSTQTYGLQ
Description: (§1) This experiment was assayed in a buffer prepared on the same day consisting of 10 mMTirs-HCl (pH=8.0), […] and 1 mM DTT. The compounds were prepared to the highest inhibitor concentration ultimately required in the 100× reaction with 100% DMSO and then transferred to one well of a 384-well Echo plate (Echo-eligible 384-well polypropylene microplates 2.0, transparent, flat-bottomed) and sequentially diluted in the next well with a 3-fold dilution of 100% DMSO, and so on, with a total of 10 concentrations based on Precision. 100% DMSO was added to two empty wells as control well without compound and control well without enzyme in the same 384-well Echo plate. 100 nL of compound was transferred from each well of the 384-well Echo plate to a 384-well assay plate (OptiPlate (384-well, white)) via the Echo 550 liquid processor. For wells with compounds and control well without compound, a mixture containing PRMT1 enzyme (5 uL) was added to the 384-well assay plate. For control well without enzyme, a mixture containing test buffer (5 uL) was added instead. The compounds were allowed to incubate with PRMT3 for 15 minutes at room temperature, and then a mixture containing cold SAM and peptide (5 uL) was added to start the reaction (final volume=10 uL). The final concentrations of the components were as follows: 0.1 nM for PRMT3, 15 uM for SAM, 0.05 uM for peptide, and 1% DMSO. After 60 min of incubation at room temperature, the reaction was terminated by the addition of donor and acceptor magnetic beads (15 uL) with a final concentration of 10 ug/mL diluted with AlphaLISA Epigenetics Buffer. The 384-well assay plate was incubated at room temperature for 60 min and the relative fluorescence units (RFU) were nextly determined using a multi-mode plate reader in Alpha mode (Ex680/Em615).
(§2) Curve fitting: the raw data were copied from Reader and the inhibition values were calculated in Excel by equation (1). […]

PRMT6 = PRMT6 (Homo sapiens, UniProt Q96LA8); assay: PRMT panel selectivity test, PRMT6
Chain of PRMT6 (Q96LA8 whole entry): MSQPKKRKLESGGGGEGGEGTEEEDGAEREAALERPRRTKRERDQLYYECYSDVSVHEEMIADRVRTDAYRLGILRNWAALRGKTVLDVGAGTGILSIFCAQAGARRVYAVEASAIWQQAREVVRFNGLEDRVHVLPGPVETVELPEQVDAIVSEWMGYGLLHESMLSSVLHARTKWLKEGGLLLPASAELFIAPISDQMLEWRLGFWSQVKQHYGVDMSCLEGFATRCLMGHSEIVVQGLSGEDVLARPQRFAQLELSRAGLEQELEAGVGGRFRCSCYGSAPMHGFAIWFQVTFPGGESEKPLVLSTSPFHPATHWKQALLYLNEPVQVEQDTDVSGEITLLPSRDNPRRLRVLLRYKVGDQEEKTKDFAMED
Description: [The procedure below names another target; the source says it served here with some conditions changed.] as §1, §2

Chain of PRMT1 (Q99873 whole entry): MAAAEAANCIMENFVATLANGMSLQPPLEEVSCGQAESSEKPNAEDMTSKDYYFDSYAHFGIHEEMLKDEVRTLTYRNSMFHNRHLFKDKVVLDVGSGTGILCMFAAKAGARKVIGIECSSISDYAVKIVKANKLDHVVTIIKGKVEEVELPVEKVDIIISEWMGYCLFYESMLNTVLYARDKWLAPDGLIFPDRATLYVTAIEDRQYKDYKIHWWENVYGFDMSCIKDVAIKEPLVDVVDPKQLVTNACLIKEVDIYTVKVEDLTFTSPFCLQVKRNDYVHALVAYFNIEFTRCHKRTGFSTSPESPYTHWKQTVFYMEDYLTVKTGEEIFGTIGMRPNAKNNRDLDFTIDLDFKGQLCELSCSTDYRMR

IC50 (PRMT1) [nM] | IC50 (PRMT3) [nM] | IC50 (PRMT6) [nM] | Structure (SMILES)
< 50 | 50 to 500 | < 50 | CCOCC1(COCC)CCC(c2cccnc2CN(C)CCNC)CC1 [P207]
< 50 | < 50 | < 50 | CNCCN(C)Cc1ccccc1C1CCN(c2ccccc2)CC1 [P023]
< 50 | 50 to 500 | < 50 | CNCCN(C)Cc1ncccc1N1CCc2ccccc2CC1 [P118]
